# Measurements: patent US6737383B1, “Herbicidal oxadiazolidines” (priority 1999, dated 2004)
# Columns and labels:
# [1] = system: morningglory; test: Test B pre/postemergence morningglory; assay type: in vivo, Ipomoea hederacea
# Outline: (§1)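 Test chemicals in a non-phytotoxic solvent mixture with surfactant were sprayed preemergence onto planted seeds and postemergence onto plants 2 to 18 cm tall (1- to 4-leaf stage). After twelve to sixteen days in a greenhouse, injury was visually rated against untreated controls from 0 (no effect) to 10 (complete control).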
# [2] = system: rape; test: Test B pre/postemergence rape; assay type: in vivo, Brassica napus
# Outline: as §1
# [3] = system: smallflower flatsedge; test: Test B flood test smallflower flatsedge; assay type: in vivo, Cyperus difformis
# Outline: (§2)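 Read-out is a visual response score from 0 (no effect) to 10 (complete control), assigned by comparison with untreated controls. Treatment was applied at the 2-leaf stage, and plants stayed in the greenhouse for twelve to sixteen days before scoring.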
# [4] = system: bamyardgrass; test: Test B flood test barnyardgrass; assay type: in vivo, Echinochloa crus-galli
# Outline: as §2
# [5] = system: goosegrass; test: Test D goosegrass; assay type: in vivo, Eleusine indica; conditions: Preemergence, 0 to 100 scale
# Outline: (§3)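 Weed seeds planted in sandy loam; species kept apart in individual pots or compartments. Preemergence tests: treatment to soil surface within one day. Greenhouse growth, then visual injury scoring at 14–21 days (0–100).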
# [6] = system: Johnson grass; test: Test D Johnson grass; assay type: in vivo, Sorghum halepense; conditions: Preemergence, 0 to 100 scale
# Outline: as §3
# [7] = system: winter wheat; test: Test E winter wheat; assay type: in vivo, Triticum aestivum; conditions: Postemergence
# Outline: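 Postemergence: 60:40 sandy loam/greenhouse potting mix, 1- to 4-leaf stage. Formulation: solvent plus surfactant. Assessment: visual comparison with untreated controls at ~21–28 days.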
# [8] = system: blackgrass; test: Test E blackgrass; assay type: in vivo, Alopecurus myosuroides; conditions: Preemergence
# [9] = system: green foxtail; test: Test E green foxtail; assay type: in vivo, Setaria viridis; conditions: Preemergence
# [10] = system: Italian ryegrass; test: Test E Italian ryegrass; assay type: in vivo, Lolium multiflorum; conditions: Preemergence
# [11] = system: winter wheat; test: Test E winter wheat; assay type: in vivo, Triticum aestivum; conditions: Preemergence
# [12] = system: wild oat; test: Test E wild oat; assay type: in vivo, Avena fatua; conditions: Preemergence
# [13] = system: winter barley; test: Test E winter barley; assay type: in vivo, Hordeum vulgare; conditions: Preemergence
# [14] = Postemergence, Rate 125 g/ha, scale of 0 to 10 where 0 is no effect and 10 is complete control
# [15] = Postemergence, Rate 250 g/ha, scale 0 to 10, 0 no effect, 10 complete control
# [16] = Preemergence, Rate 62 g/ha, scale 0 to 10 (0 no effect, 10 complete control)
# [17] = Preemergence, Rate 125 g/ha, scale 0 to 10 (0 no effect, 10 complete control)
# [18] = Preemergence, Rate 250 g/ha, scale of 0 to 10 where 0 is no effect and 10 is complete control
# [19] = Preemergence, Rate 500 g/ha, scale 0 to 10 (0 no effect, 10 complete control)
# [20] = Rate 62 g/ha, Postemergence, scale of 0 to 10 where 0 is no effect and 10 is complete control
# [21] = Rate 500 g/ha, Postemergence, scale 0 to 10, 0 no effect, 10 complete control
# [22] = Rate 250 g/ha, headed Pre-emergence (flood test species), scale 0 to 10 (0 no effect, 10 complete control)
# [23] = Rate 500 g/ha, headed Pre-emergence (flood test species), scale 0 to 10 (0 no effect, 10 complete control)
# [24] = Rate 500 g/ha, listed under Postemergence (flood test species), scale 0 to 10, 0 no effect, 10 complete control
# [25] = Rate 16 g/ha, 0 no injury, 100 complete control
# [26] = Rate 32 g/ha, 0 no injury, 100 complete control
# [27] = Rate 64 g/ha, 0 no injury, 100 complete control
# [28] = Rate 125 g/ha, 0 no injury, 100 complete control
# [29] = Rate 500 g/ha, 0 to 100 scale, 0 no effect, 100 complete control
# [30] = Rate 62 g/ha, 0 to 100 scale, 0 no effect, 100 complete control
# [31] = Rate 125 g/ha, 0 to 100 scale (0 no effect, 100 complete control)
# [32] = Rate 500 g/ha, 0 to 100 scale where 0 is no effect and 100 is complete control
# [33] = Preemergence, Rate 125 g/ha, 0 is no effect, 10 is complete control
# [34] = Preemergence, Rate 250 g/ha, scale 0 to 10, 0 is no effect, 10 is complete control
# [35] = Rate 250 g/ha, Postemergence, scale 0 to 10, 0 is no effect, 10 is complete control
# [36] = Rate 500 g/ha, Postemergence, scale 0 to 10
compound,measurement,setting,value
CC(C)N(C(=O)n1oc(=O)n(C(C)C)c1=O)c1ccc(F)cc1F [Compound 109],Morningglory plant response rating,[1]; [14],3
same,Morningglory plant response rating,[1]; [15],5
same,Morningglory plant response rating,[1]; [16],0
same,"Plant response rating, Morningglory",[1]; [17],5
same,"Plant response rating, Morningglory",[1]; [18],6
same,Morningglory plant response rating,[1]; [19],10
same,Morningglory plant response rating,[1]; [20],3
same,Morningglory plant response rating,[1]; [21],5
same,Rape plant response rating,[2]; [14],3
same,Rape plant response rating,[2]; [15],4
same,Rape plant response rating,[2]; [16],7
same,"Plant response rating, Rape",[2]; [17],8
same,"Plant response rating, Rape",[2]; [18],9
same,Rape plant response rating,[2]; [19],10
same,Rape plant response rating,[2]; [20],3
same,Rape plant response rating,[2]; [21],6
same,S. Flatsedge plant response rating,"[3]; Postemergence (flood test species), Rate 125 g/ha, scale of 0 to 10 where 0 is no effect and 10 is complete control",0
same,S. Flatsedge plant response rating,"[3]; Pre-emergence, Rate 1000 g/ha, scale 0 to 10 (0 no effect, 10 complete control)",8
same,S. Flatsedge plant response rating,"[3]; Rate 62 g/ha, Postemergence section, flood test species, scale of 0 to 10 where 0 is no effect and 10 is complete control",0
same,"Plant response rating, S. Flatsedge","[3]; Rate 250 g/ha, Postemergence (flood test), scale 0 to 10, 0 is no effect, 10 is complete control",0
same,S. Flatsedge plant response rating,[3]; [22],0
same,"Plant response rating, S. Flatsedge",[3]; [23],0
same,S. Flatsedge plant response rating,[3]; [24],0
same,S. Flatsedge plant response rating,"[3]; Rate 2000 g/ha, Pre-emergence (as headed), scale 0 to 10",8
same,Barnyardgrass plant response rating,"[4]; Postemergence, Rate 62 g/ha, scale 0 to 10, 0 is no effect, 10 is complete control",0
same,Barnyardgrass plant response rating,"[4]; Rate 125 g/ha, Postemergence section (flood test species), scale 0 to 10, 0 no effect, 10 complete control",0
same,Barnyardgrass plant response rating,[4]; [22],0
same,"Plant response rating, Barnyardgrass",[4]; [23],0
same,Barnyardgrass plant response rating,[4]; [24],0
same,Barnyardgrass plant response rating,"[4]; Rate 1000 g/ha, Pre-emergence (as headed), scale 0 to 10",8
same,Barnyardgrass plant response rating,"[4]; Rate 2000 g/ha, Pre-emergence (as headed), scale 0 to 10, 0 no effect, 10 complete control",9
same,Barnyardgrass plant response rating,"[4]; flood test, listed under Postemergence, Rate 250 g/ha, scale 0 to 10, 0 no effect, 10 complete control",0
same,"Plant response rating, Goosegrass",[5]; [25],85
same,"Plant response rating, Goosegrass",[5]; [26],98
same,"Plant response rating, Goosegrass",[5]; [27],100
same,"Plant response rating, Goosegrass",[5]; [28],100
same,"Plant response rating, Goosegrass",[5]; Rate 250 g/ha,100
same,"Plant response rating, Goosegrass",[5]; Rate 500 g/ha,100
same,Plant response rating Johnsongrass,[6]; [25],0
same,Plant response rating Johnsongrass,[6]; [26],0
same,Plant response rating Johnsongrass,[6]; [27],75
same,Plant response rating Johnsongrass,[6]; [28],98
same,Plant response rating Johnsongrass,[6]; Rate 250 g/ha,100
same,Plant response rating Johnsongrass,[6]; Rate 500 g/ha,100
same,"Plant response rating, Wheat (winter)","[7]; Rate 62 g/ha, 0 to 100 scale",0
same,"Plant response rating, Wheat (winter)","[7]; Rate 125 g/ha, 0 to 100 scale",55
same,"Plant response rating, Wheat (winter)","[7]; Rate 250 g/ha, 0 to 100 scale (0 no effect, 100 complete control)",75
same,"Plant response rating, Wheat (winter)",[7]; [29],0
same,"Plant response rating, Blackgrass",[8]; [30],30
same,"Plant response rating, Blackgrass",[8]; [31],65
same,"Plant response rating, Blackgrass","[8]; Rate 250 g/ha, 0 to 100 scale",65
same,"Plant response rating, Blackgrass",[8]; [32],90
same,"Plant response rating, Green foxtail",[9]; [30],50
same,"Plant response rating, Green foxtail",[9]; [31],85
same,"Plant response rating, Green foxtail","[9]; Rate 250 g/ha, 0 to 100 scale",100
same,"Plant response rating, Green foxtail",[9]; [32],85
same,"Plant response rating, I. Ryegrass",[10]; [30],20
same,"Plant response rating, I. Ryegrass",[10]; [31],100
same,"Plant response rating, I. Ryegrass","[10]; Rate 250 g/ha, 0 to 100 scale",100
same,"Plant response rating, I. Ryegrass",[10]; [32],70
same,"Plant response rating, Wheat (winter)",[11]; [30],20
same,"Plant response rating, Wheat (winter)",[11]; [31],30
same,"Plant response rating, Wheat (winter)","[11]; Rate 250 g/ha, 0 to 100 scale",55
same,"Plant response rating, Wheat (winter)",[11]; [32],10
same,"Plant response rating, Wild oat",[12]; [30],20
same,"Plant response rating, Wild oat",[12]; [31],30
same,"Plant response rating, Wild oat",[12]; [32],80
same,"Plant response rating, Barley (winter)",[13]; [30],10
same,"Plant response rating, Barley (winter)",[13]; [31],10
same,"Plant response rating, Barley (winter)","[13]; Rate 250 g/ha, 0 to 100 scale",20
same,"Plant response rating, Barley (winter)",[13]; [32],5
Cc1ccc(N(C(=O)n2oc(=O)n(C(C)C)c2=O)C(C)C)cc1 [Compound 132],Morningglory plant response rating,[1]; [14],6
same,Morningglory plant response rating,[1]; [16],0
same,Morningglory plant response rating (0 to 10 scale),[1]; [33],0
same,Morningglory plant response rating,[1]; [34],0
same,Morningglory plant response rating,[1]; [19],2
same,Morningglory plant response rating,[1]; [20],3
same,"Plant response rating, Morningglory",[1]; [35],6
same,Morningglory plant response rating,[1]; [36],7
same,Rape plant response rating,[2]; [14],0
same,Rape plant response rating,[2]; [16],0
same,Rape plant response rating (0 to 10 scale),[2]; [33],0
same,Rape plant response rating,[2]; [34],0
same,Rape plant response rating,[2]; [19],8
same,Rape plant response rating,[2]; [20],0
same,"Plant response rating, Rape",[2]; [35],0
same,Rape plant response rating,[2]; [36],0
same,"Plant response rating, Goosegrass",[5]; [27],98
same,Plant response rating Johnsongrass,[6]; [27],35
same,"Plant response rating, Wheat (winter)","[7]; Rate 125 g/ha, 0 to 100 scale",20
same,"Plant response rating, Wheat (winter)",[7]; [29],80
same,Wheat (winter) plant response rating,"[7]; Rate 250 g/ha, 0 to 100 scale where 0 is no effect and 100 is complete control",50
same,"Plant response rating, Blackgrass",[8]; [31],20
same,Blackgrass plant response rating (0 to 100 scale),[8]; Rate 250 g/ha,60
same,"Plant response rating, Blackgrass",[8]; [32],75
same,"Plant response rating, Green foxtail",[9]; [31],60
same,Green foxtail plant response rating (0 to 100 scale),[9]; Rate 250 g/ha,98
same,"Plant response rating, Green foxtail",[9]; [32],100
same,"Plant response rating, I. Ryegrass",[10]; [31],20
same,I. Ryegrass plant response rating (0 to 100 scale),[10]; Rate 250 g/ha,100
same,"Plant response rating, I. Ryegrass",[10]; [32],100
same,"Plant response rating, Wheat (winter)",[11]; [31],30
same,Wheat (winter) plant response rating (0 to 100 scale),[11]; Rate 250 g/ha,40
same,"Plant response rating, Wheat (winter)",[11]; [32],60
same,"Plant response rating, Wild oat",[12]; [31],35
same,Wild oat plant response rating (0 to 100 scale),[12]; Rate 250 g/ha,50
same,"Plant response rating, Wild oat",[12]; [32],65
same,"Plant response rating, Barley (winter)",[13]; [31],10
same,Barley (winter) plant response rating (0 to 100 scale),[13]; Rate 250 g/ha,50
same,"Plant response rating, Barley (winter)",[13]; [32],60
